In patent publication US8722123B2, “Antimicrobial composition and use as food treatment” (priority 2008, dated 2014):
“And” between values parts separate entries of the source, which are not always exact repeats. Identical values can stand only once. Like-named read-outs stand apart in the source and are kept apart here.

Assays:
[1] = tested on: S. enteritidis; assay type: cell-based, Salmonella enteritidis
[2] = tested on: S. typhimurium DT 104; assay type: cell-based, Salmonella typhimurium DT104
[3] = tested on: L. monocytogenes; assay type: cell-based, Listeria monocytogenes
[4] = tested on: spores of Bacillus anthracis Sterne; assay type: cell-based, Bacillus anthracis Sterne (34F2)
[5] = tested on: Salmonella on whole chicken with feathers; assay: Salmonella counts on whole chicken with feathers; assay type: cell-based; conditions: whole chickens with feathers soaked in 72 L at 21° C. for 5 min, chickens 1-5

| SMILES | S. enteritidis counts at 0 min [1] [log CFU/ml] | S. enteritidis counts at 2 min [1] [log CFU/ml] | S. enteritidis counts at 5 min [1] [log CFU/ml] | S. enteritidis counts at 10 min [1] [log CFU/ml] | S. enteritidis counts at 20 min [1] [log CFU/ml] | S. enteritidis counts at 30 min [1] [log CFU/ml] | L. monocytogenes counts at 0 min [3] [log CFU/ml] | L. monocytogenes counts at 2 min [3] [log CFU/ml] | L. monocytogenes counts at 5 min [3] [log CFU/ml] | L. monocytogenes counts at 10 min [3] [log CFU/ml] | L. monocytogenes counts at 20 min [3] [log CFU/ml] | L. monocytogenes counts at 30 min [3] [log CFU/ml] | further results |
| --- | --- | --- | --- | --- | --- | --- | --- | --- | --- | --- | --- | --- | --- |
| CC(=O)CCC(=O)O [0.1% levulinic acid (pH 2.5), levulinic acid] | 7.1 | 7.1 | 6.9 | 7.0 | 6.9 | 6.9 |  |  |  |  |  |  |  |
| CC(=O)O [0.5% acetic acid (pH 3.1), acetic acid] | 7.1 | 7.0 | 6.8 | 6.7 | 6.6 | 6.5 |  |  |  |  |  |  |  |
| CC(=O)CCC(=O)O [0.5% levulinic acid (pH 2.6), levulinic acid] | 7.1 | 6.8 | 6.9 | 6.9 | 6.6 | 6.7 | 6.7 ± 0.2 | 6.7 ± 0.1 | 6.8 ± 0.3 | 6.9 ± 0.2 | 6.7 ± 0.2 | 6.8 ± 0.2 | S. typhimurium DT 104 counts at 0 min [2]: 6.8 log CFU/ml; S. typhimurium DT 104 counts at 1 min [2]: 6.7 log CFU/ml; S. typhimurium DT 104 counts at 2 min [2]: 6.6 log CFU/ml; S. typhimurium DT 104 counts at 5 min [2]: 6.5 log CFU/ml; S. typhimurium DT 104 counts at 10 min [2]: 6.7 log CFU/ml; S. typhimurium DT 104 counts at 20 min [2]: 6.6 log CFU/ml; S. typhimurium DT 104 counts at 30 min [2]: 6.4 log CFU/ml; S. typhimurium DT 104 counts at 60 min [2]: 5.9 log CFU/ml |
| CCCCCCCCCCCCOS(=O)(=O)[O-].[Na+] [0.05% sodium dodecyl sulfate (pH 4.4), sodium dodecyl sulfate] | 7.1 | 7.0 | 7.2 | 7.1 | 7.2 | 7.1 |  |  |  |  |  |  | Salmonella reduction [1]: did not reduce Salmonella cell numbers; S. typhimurium DT 104 counts at 0 min [2]: 7.0 log CFU/ml; S. typhimurium DT 104 counts at 1 min [2]: 7.0 log CFU/ml; S. typhimurium DT 104 counts at 2 min [2]: 6.8 log CFU/ml; S. typhimurium DT 104 counts at 5 min [2]: 6.9 log CFU/ml; S. typhimurium DT 104 counts at 10 min [2]: 6.8 log CFU/ml; S. typhimurium DT 104 counts at 20 min [2]: 6.9 log CFU/ml; S. typhimurium DT 104 counts at 30 min [2]: 6.9 log CFU/ml; S. typhimurium DT 104 counts at 60 min [2]: 6.9 log CFU/ml; L. monocytogenes counts at 0 min ([3]; 21° C.): 6.6 ± 0.3 log CFU/ml; L. monocytogenes counts at 2 min ([3]; 21° C.): 6.4 ± 0.1 log CFU/ml; L. monocytogenes counts at 5 min ([3]; 21° C.): 6.0 ± 0.1 log CFU/ml; L. monocytogenes counts at 10 min ([3]; 21° C.): 5.0 ± 0.3 log CFU/ml; L. monocytogenes counts at 20 min ([3]; 21° C.): 3.8 ± 0.2 log CFU/ml; L. monocytogenes counts at 30 min ([3]; 21° C.): 3.3 ± 0.1 log CFU/ml |
| CC(=O)CCC(=O)O [1.0% levulinic acid (pH 2.9), levulinic acid] | 6.9 | 6.7 | 6.8 | 6.9 | 6.9 | 6.7 | 6.8 ± 0.3 | 6.7 ± 0.2 | 6.6 ± 0.3 | 6.6 ± 0.3 | 6.6 ± 0.0 | 6.6 ± 0.3 |  |
| CC(=O)CCC(=O)O [1.5% levulinic acid (pH 2.8), levulinic acid] | 6.7 | 6.7 | 6.8 | 6.7 | 6.4 | 6.5 | 6.9 ± 0.1 | 6.9 ± 0.2 | 6.9 ± 0.3 | 6.9 ± 0.1 | 6.9 ± 0.3 | 6.8 ± 0.3 |  |
| CC(=O)CCC(=O)O [2.0% levulinic acid (pH 2.8), levulinic acid] | 6.7 | 6.7 | 6.7 | 6.8 | 6.5 | 6.0 | 6.8 ± 0.3 | 6.8 ± 0.2 | 6.9 ± 0.2 | 6.7 ± 0.2 | 6.9 ± 0.2 | 6.8 ± 0.2 |  |
| CC(=O)CCC(=O)O [2.5% levulinic acid (pH 2.6), levulinic acid] | 6.9 | 6.8 | 6.9 | 6.4 | 5.8 | 4.8 |  |  |  |  |  |  |  |
| CC(=O)CCC(=O)O [3.0% levulinic acid (pH 2.7), levulinic acid] | 6.6 | 6.8 | 6.5 | 6.2 | 5.1 | 3.8 |  |  |  |  |  |  | CFU % recovery (as compared to control flask F), 0 min [4]: 89% and 70% and 75%; CFU % recovery (as compared to control flask F), 10 min [4]: 81%; CFU % recovery (as compared to control flask F), 45 min [4]: 55%; CFU % recovery (as compared to control flask F), 1 h [4]: 54% and 78% and 80% and 58%; CFU % recovery (as compared to control flask F), 90 min [4]: 64%; CFU % recovery (as compared to control flask F), 2 h [4]: 27% and 45% and 46% and 34% |
| [Ca+2].[O-]Cl.[O-]Cl [50 ppm calcium hypochlorite] |  |  |  |  |  |  |  |  |  |  |  |  | Salmonella counts after treatment ([5]; left breast): 7.0 log CFU/9 cm^2 and 8.7 log CFU/9 cm^2 and 7.9 log CFU/9 cm^2 and 8.1 log CFU/9 cm^2; Salmonella counts after treatment ([5]; left wing): 7.6 log CFU/9 cm^2 and 8.0 log CFU/9 cm^2 and 8.1 log CFU/9 cm^2 and 8.8 log CFU/9 cm^2 and 8.5 log CFU/9 cm^2; Salmonella counts after treatment ([5]; neck): 7.9 log CFU/9 cm^2 and 8.9 log CFU/9 cm^2 and 8.5 log CFU/9 cm^2 and 8.1 log CFU/9 cm^2; Salmonella counts after treatment ([5]; right breast): 7.9 log CFU/9 cm^2 and 8.3 log CFU/9 cm^2 and 8.0 log CFU/9 cm^2 and 8.5 log CFU/9 cm^2 and 7.8 log CFU/9 cm^2; Salmonella counts after treatment ([5]; right wing): 8.4 log CFU/9 cm^2 and 8.0 log CFU/9 cm^2 and 7.6 log CFU/9 cm^2 |
| CCCCCCCCCCCCOS(=O)(=O)[O-].[Na+] [E] |  |  |  |  |  |  |  |  |  |  |  |  | CFU % recovery (as compared to control flask F), 10 min [4]: 65%; CFU % recovery (as compared to control flask F), 45 min [4]: 94%; CFU % recovery (as compared to control flask F), 90 min [4]: 144%; CFU % recovery (as compared to control flask F), 2 h [4]: 87% and 74% and 103% and 53%; CFU % recovery (as compared to control flask F), 180 min [4]: 95%; CFU % recovery (as compared to control flask F), 3 h [4]: 98% and 68% and 113% and 71%; effectiveness versus water control F [4]: not more effective than the water control F; recovery levels over time [4]: did not decrease |
